Results from patent US7611848B2, “Method for selecting allosteric regulators of class III G protein-coupled receptors” (Centre National de la Recherche Scientifique (CNRS), priority 2003, dated 2009).

What was measured:
[1] = system: deltaGB2s (truncated GABAB2 (GB2) subunit); assay: IP production in HEK293 cells transiently expressing deltaGB2s receptor and chimeric G protein Gqi9; type: cell-based; details: deltaGB2s with Gqi9, FIG. 9
Source text: FIG. 9: Graph representing the dose-effect of CGP7930 on the deltaGB2s receptor, in HEK293 cells transiently expressing this receptor, and also the chimeric G protein Gqi9 that allows coupling of this receptor to the phospholipase C activation pathway. The results correspond to the ratio of the production of IP to the radioactivity remaining in the membranes.
The protocol described in section A.I. above, concerning the mGlu5 receptor, was applied mutatis mutandis to the mGlu1 and mGlu2 receptors and to the GB2 subunit.
For this, GPCRs-III for which positive allosteric modulators have been described were chosen: the mGlu1 receptor (Ro01-6128) (Knoflach et al., 2001), the mGlu2 receptor (LY487379) (Schaffhauser et al., 2003), and the GABAB2 (GB2) subunit of the GABAB receptor (CGP7930) (Urwyler et al., 2001). The receptors truncated with respect to their extracellular and intracellular portions are named, respectively, delta1s, delta2s and deltaGB2s and were expressed transiently in HEK293 cells.
In order to allow the delta2s and deltaGB2s receptors to activate the phospholipase C, and therefore to increase the production of inositol phosphates, these two receptors were coexpressed with the chimeric G protein Gqi9 as described above (Gomeza et al., 1996; Franek et al., 1999).

[2] = target: heterodimeric receptor GABAB (GB1 and GB2 subunits) (Homo sapiens, UniProt O75899); details: literature (Urwyler et al., 2001); cited from earlier work
wild-type mGlu5 receptor = target: T1, wild-type mGlu5 receptor (Rattus norvegicus, UniProt P31424); assay: IP production in HEK293 cells transiently expressing wild-type mGlu5 receptor; type: cell-based
T1 construct: expressed in transfected cells; host or cells: HEK293
Source text: (§1) The results correspond to the ratio of the production of IP to the radioactivity remaining in the membranes.
(§2) The results correspond to the ratio of the production of IP to the radioactivity remaining in the membranes, and are expressed as percentage baseline production of IP.
(§3) In the context of the invention, the measurement of the level of activity of the GPCR-III-A can be carried out by any conventional method known to those skilled in the art that is suitable for measuring the activity of a GPCR-III. Among these methods, mention may be made, by way of example, of measurement of the level of production of inositol phosphates (IPs; see Experimental Section, below; Berridge, 1983; Brandish et al., 2003), measurement of […] (Milligan, 2003), measurement of intracellular calcium signals using fluorescent markers such as Fluo3 or Fluo4, and measurement of cAMP production, the latter two methods being conventional and well known to those skilled in the art.
DFB has recently been described as a positive allosteric regulator of the mGlu5 receptor (Williams et al., 2002). In order to test its effect on the mGlu5ΔS protein, DFB was synthesized by F. Acher (UMR University R. Descartes, rue des Saints Peres, Paris 5).
The data correspond to the mean±standard deviation of the mean of (n) experiments.

[3] = target: T2, mGlu5ΔS protein (heptahelical domain of the mGlu5 receptor) (Rattus norvegicus, UniProt P31424); assay: IP production in HEK293 cells transiently expressing truncated mGlu5ΔS protein; type: cell-based
T2 construct: between residue P568, located 11 residues before the first transmembrane domain, and residue L864; signal peptide of the mGlu5 receptor (N); expressed in transfected cells; host or cells: HEK293
Source text: as §2, §1, §3
The portion of the cDNA of the mGlu5 receptor encoding its heptahelical domain between residue P568, located 11 residues before the first transmembrane domain, and residue L864, located 37 residues after the 7th transmembrane domain, was amplified by PCR (primers SEQ ID No.1 and SEQ ID No.2), including, respectively, the restriction sites of the Mlu-I and Xba-I enzymes at the 5′ and 3′ ends (FIG. 2). The PCR product thus obtained was digested with the Mlu-I and Xba-I enzymes, subcloned into the vector pRK5-NHA (FIG. 2), and digested with the same enzymes. The plasmid pRK5-NHA was obtained from the plasmid pRKG5a-NHA (Ango et al., 1999), by replacing the sequence encoding the mGlu5 receptor, from the end of the HA tag to the XbaI restriction site, with an MluI restriction site.

mGlu2 receptor = mGlu2 receptor (Homo sapiens, UniProt Q14416); details: literature; cited from earlier work
mGlu1 receptor = mGlu1 receptor (Rattus norvegicus, UniProt P23385); details: literature; cited from earlier work
Chain of mGlu1 receptor (P23385 19-1199): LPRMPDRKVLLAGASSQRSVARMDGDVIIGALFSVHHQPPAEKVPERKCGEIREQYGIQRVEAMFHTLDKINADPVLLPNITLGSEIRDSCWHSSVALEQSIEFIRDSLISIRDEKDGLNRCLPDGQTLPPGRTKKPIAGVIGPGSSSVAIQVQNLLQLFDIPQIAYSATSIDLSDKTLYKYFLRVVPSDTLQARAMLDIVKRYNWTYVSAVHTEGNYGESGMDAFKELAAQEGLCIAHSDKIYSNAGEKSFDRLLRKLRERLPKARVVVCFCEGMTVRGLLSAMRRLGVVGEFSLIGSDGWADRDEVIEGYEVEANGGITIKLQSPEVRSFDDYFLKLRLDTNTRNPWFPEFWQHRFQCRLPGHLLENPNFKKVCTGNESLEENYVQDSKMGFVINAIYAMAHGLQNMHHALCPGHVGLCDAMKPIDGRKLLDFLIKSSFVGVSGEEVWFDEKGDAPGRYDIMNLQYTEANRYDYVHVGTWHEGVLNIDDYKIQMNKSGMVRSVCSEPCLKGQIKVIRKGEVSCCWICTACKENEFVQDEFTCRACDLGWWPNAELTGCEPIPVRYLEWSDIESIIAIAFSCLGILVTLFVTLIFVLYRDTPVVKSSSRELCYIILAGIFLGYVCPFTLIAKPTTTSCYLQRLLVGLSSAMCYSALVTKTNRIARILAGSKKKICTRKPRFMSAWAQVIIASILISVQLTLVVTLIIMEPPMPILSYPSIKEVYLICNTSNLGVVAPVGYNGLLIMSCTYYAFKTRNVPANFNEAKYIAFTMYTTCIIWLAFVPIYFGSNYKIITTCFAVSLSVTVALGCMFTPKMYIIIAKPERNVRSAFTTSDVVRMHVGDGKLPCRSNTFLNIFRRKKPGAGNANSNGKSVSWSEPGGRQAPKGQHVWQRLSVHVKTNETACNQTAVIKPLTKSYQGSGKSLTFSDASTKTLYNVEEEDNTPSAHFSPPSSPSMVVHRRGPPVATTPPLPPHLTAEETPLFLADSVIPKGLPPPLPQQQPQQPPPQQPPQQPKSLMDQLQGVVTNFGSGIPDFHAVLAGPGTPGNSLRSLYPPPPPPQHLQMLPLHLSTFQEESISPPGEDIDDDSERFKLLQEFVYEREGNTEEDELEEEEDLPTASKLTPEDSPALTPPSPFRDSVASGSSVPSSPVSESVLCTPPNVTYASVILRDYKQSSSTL

T2 sequence (P31424 568-864, stated change not applied): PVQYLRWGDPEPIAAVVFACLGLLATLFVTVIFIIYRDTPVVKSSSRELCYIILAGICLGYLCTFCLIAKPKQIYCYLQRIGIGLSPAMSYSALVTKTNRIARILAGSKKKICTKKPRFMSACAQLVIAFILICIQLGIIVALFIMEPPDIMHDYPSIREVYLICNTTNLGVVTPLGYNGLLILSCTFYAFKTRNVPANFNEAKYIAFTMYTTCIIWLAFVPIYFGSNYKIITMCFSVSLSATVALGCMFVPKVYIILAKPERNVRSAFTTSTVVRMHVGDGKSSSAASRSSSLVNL
T1 sequence (P31424 21-1171 isoform P31424-2 limits assumed): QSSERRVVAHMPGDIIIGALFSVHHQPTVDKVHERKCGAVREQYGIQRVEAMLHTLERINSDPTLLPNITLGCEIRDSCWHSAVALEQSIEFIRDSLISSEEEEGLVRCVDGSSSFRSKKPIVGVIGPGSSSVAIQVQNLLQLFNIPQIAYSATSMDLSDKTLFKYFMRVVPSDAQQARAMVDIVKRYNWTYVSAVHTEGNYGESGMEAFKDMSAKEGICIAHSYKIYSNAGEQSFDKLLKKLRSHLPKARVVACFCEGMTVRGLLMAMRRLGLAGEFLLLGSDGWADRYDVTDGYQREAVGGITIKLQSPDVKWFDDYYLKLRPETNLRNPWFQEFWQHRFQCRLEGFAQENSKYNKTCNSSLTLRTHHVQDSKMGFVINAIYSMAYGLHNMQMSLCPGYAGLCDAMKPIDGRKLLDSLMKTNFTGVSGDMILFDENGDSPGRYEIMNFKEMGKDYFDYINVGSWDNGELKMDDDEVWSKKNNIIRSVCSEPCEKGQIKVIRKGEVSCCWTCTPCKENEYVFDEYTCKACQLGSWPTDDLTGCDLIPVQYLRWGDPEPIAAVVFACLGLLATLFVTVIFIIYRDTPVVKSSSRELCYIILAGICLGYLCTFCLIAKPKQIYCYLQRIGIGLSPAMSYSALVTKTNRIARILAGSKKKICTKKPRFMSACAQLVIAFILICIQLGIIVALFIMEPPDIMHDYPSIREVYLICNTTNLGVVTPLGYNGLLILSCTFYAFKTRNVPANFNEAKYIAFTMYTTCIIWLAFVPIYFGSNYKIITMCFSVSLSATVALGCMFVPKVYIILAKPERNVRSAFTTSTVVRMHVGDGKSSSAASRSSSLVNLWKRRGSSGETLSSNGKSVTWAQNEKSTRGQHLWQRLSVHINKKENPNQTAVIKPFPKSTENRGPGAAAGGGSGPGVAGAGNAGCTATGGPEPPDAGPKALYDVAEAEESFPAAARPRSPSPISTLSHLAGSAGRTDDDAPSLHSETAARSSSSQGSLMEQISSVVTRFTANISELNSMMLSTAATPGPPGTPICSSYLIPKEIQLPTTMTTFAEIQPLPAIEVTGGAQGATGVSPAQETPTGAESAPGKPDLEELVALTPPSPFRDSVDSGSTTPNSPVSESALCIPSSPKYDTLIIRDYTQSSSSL
Chain of mGlu2 receptor (Q14416 19-872): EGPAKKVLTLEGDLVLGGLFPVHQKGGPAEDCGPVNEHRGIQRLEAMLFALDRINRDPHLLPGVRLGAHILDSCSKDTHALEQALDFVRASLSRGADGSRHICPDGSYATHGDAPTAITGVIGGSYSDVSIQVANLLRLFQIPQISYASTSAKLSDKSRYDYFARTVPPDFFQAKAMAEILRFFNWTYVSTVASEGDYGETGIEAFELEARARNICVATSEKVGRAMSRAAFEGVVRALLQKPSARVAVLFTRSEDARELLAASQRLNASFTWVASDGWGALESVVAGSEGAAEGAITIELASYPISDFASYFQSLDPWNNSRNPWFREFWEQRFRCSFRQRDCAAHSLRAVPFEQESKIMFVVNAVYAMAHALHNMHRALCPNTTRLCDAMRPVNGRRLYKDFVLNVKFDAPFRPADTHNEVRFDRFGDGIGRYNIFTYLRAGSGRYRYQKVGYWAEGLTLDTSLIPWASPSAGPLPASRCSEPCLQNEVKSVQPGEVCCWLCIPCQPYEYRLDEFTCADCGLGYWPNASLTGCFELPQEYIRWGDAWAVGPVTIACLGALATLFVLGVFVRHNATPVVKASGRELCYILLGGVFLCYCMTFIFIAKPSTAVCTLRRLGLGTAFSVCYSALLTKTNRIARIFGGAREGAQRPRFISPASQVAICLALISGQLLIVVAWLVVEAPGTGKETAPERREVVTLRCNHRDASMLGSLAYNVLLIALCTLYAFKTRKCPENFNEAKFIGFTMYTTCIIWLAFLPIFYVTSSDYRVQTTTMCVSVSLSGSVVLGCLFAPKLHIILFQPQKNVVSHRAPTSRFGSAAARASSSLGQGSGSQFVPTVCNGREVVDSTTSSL

## CC(C)(CO)Cc1cc(C(C)(C)C)c(O)c(C(C)(C)C)c1 [CGP7930, 2,6-Di-tert.-butyl-4-4-(3-hydroxy-2,2-dimethyl-propyl)-phenol]
[1]
  stimulation of truncated construct (IP production): strongly stimulates
[2]
  agonist activity on heterodimeric GABAB receptor: weak agonist activity

## Fc1cccc(/C=N/N=C/c2cccc(F)c2)c1 [DFB]
wild-type mGlu5 receptor; glutamate kept as low as possible by coexpression of EAAC1 and addition of GPT with pyruvate (2 mM)
  activation of the wild-type mGlu5 receptor by compound alone: did not significantly activate
wild-type mGlu5 receptor; in the presence of a low concentration of agonist, read-out: EC50 for dose-dependent increase of IP production
  EC50: 1.81 ± 1.04 µM
[3]; cells expressing mGlu5ΔS
  effect on IP production of compound alone (agonist behaviour): stimulated IP production
[3]; compound alone on mGlu5ΔS, n=3, read-out: EC50 for stimulation of IP production
  EC50: 8 ± 3 µM

## COc1ccccc1Oc1ccc(N(Cc2cccnc2)S(=O)(=O)CC(F)(F)F)cc1 [LY487379]
mGlu2 receptor
  agonist effect when applied alone: no agonist effect
  potentiation of the effect of agonists: potentiate the effect of agonists

## Cc1cccc(C#Cc2ccccc2)n1 [MPEP, 2-Methyl-6-(phenylethynyl)pyridine]
wild-type mGlu5 receptor; wild-type receptor, data not shown
  inhibition of the effect of DFB: inhibited
[3]; mGlu5ΔS cells treated with 300 μM of DFB (FIG. 6B)
  inhibition of the effect of DFB: inhibited

## CCOC(=O)NC(=O)C(c1ccccc1)c1ccccc1 [Ro01-6128]
mGlu1 receptor
  agonist effect when applied alone: no agonist effect
  potentiation of the effect of agonists: potentiate the effect of agonists

## glutamate
wild-type mGlu5 receptor; 100 μM glutamate (FIG. 3), wild-type mGlu5
  effect of glutamate on IP production: stimulated IP production
